Measured values published in US20110060045A1, “ANTI-DIABETIC CATARACT COMPOUNDS AND THEIR USES” (NATIONAL RESEARCH COUNCIL OF CANADA, priority 2006, published 2011).
Several values for one entry are separate records, joined by “and”; a condition that tells them apart may be missing. Equal values may be shown once. Read-outs that look alike come from different tables or passages of the source.

Columns and labels:
PC12 cells [1] = assay: Cytotoxicity in PC12 cells (MTT assay); type: cell-based
Procedure: The cytotoxicity of (S)-isoproterenol dipivalate was measured by using PC12 cells. […] PC12 cells were seeded onto rat-tail collagen coated 96-well plates at a density of 2×10^4 cells/well and cultivated for one day. On the day of the experiment, dilutions of (S)-isoproterenol dipivalate ranging from 100 μM to 10 mM were prepared in complete medium. […] At the end of the incubation times, the medium was aspirated and 100 μL of a solution of MTT (3-(4,5-dimethylthiazol-2-yl)-2,5-diphenyltetrazolium; 0.2 mg/ml in complete medium) was added to the cells. After incubation at 37° C. for 2 hours, MTT was removed and the colored formazan was dissolved in dimethyl sulfoxide (DMSO) (½ hour at 37° C.). Reduction was measured by colorimetric detection (595 nm) of the blue insoluble formazan product. This assay provides an estimate of the number of functioning mitochondria present in the cells; i.e. the quantity of formazan product is directly proportional to the number of metabolically active cells in the culture. The viability of PC12 cells in each well was presented as percentage of control cells.

[2] = system: Streptozotocin-injected diabetic rats; assay: Diabetic cataract initiation and progression in Streptozotocin-injected rats, eye drops; type: in vivo, rat; conditions: for Time entered in level 4 / Time stayed in level 0 / Time stayed in level 1 / Time stayed in level 2 / Time stayed in level 3: individual diabetic rats with drug; for Time entered in level 4 / Time stayed in level 0 / Time stayed in level 1 / Time stayed in level 2 / Time stayed in level 3 / Time stayed in level 0 (cataract initiation), Av ± STD / Time stayed in level 1, Av ± STD / Time stayed in level 2, Av ± STD / Time stayed in level 3, Av ± STD: hydrochloride; for Time stayed in level 0 (cataract initiation), Av ± STD / Time stayed in level 1, Av ± STD / Time stayed in level 2, Av ± STD / Time stayed in level 3, Av ± STD: diabetic rats with drug, n=17, both eyes; for Time stayed in level 0 (cataract initiation), Av ± STD: 0.10% eye drop twice a day
Text: A rat model was used to study the effect of (S)-isoproterenol on diabetic cataract, that of streptozotocin-injection to induce diabetes by destroying the β-cells of the pancreas. This model has been widely used to study diabetes-related pathological events and their possible treatments (Dagher et al., 2004; Ben-nun et al., 2004; Chung et al., 2005). The rat model has an advantage of rapid formation of diabetic cataract such that initial cataract was observed as early as 8-9 weeks in the majority of the control diabetic rats. Two-month-old male Sprague-Dawley rats were purchased from Charles River, Canada. They were housed in the Biotechnology Research Institute (BRI)—animal facility. Housing and all experimental manipulations were approved by the BRI Animal Care Committee that functions under the guidelines of the Canadian Council of Animal Care.
(§1) The pH of the eye drop was adjusted to 5.5 with 1N—HCl. […] The eye drop was freshly prepared every month and was stored at 4° C. […] The size of each eye drop was 50 μL.
Diabetes was induced in male Sprague-Dawley rats weighing approximately 200 to 250 g by a single intraperitoneal injection of the beta-cell toxin, Streptozotocin (STZ) (Sigma, St. Louis, […].), at a dose of 60 mg/kg body weight in 0.1M citrate buffer pH 4.5. Non-diabetic control rats received citrate buffer only.
(§2) Eye drops or vehicle were administered twice a day, seven days a week, on the cornea of different groups of rats, with a minimum interval of 7 h between the two treatments. To promote weight gain and limit hyperglycemia, diabetic rats were injected sub-cutaneously with 2 IU ultralente insulin (Humulin, Eli Lilly, Toronto, ON, Canada) three times a week. Animal weights were monitored every week.
Cataract progression was monitored by visual examination, twice a week. A scoring system was devised to evaluate the severity of the cataract. A healthy eye was given a score of 0 (normal level); when a faint pinkish hue was discernable (level 1), cataract formation was in its earliest stage of being visually detected and this stage was given a score of 1. When a white film is clearly detectable (level 2), a score of 2 was assigned. When the film covers the entire eye, but the pupils are still visible (level 3), a score of 3 was assigned, and finally the cataract was considered most severe (score of 4) when the pupil was not detected due to the formation of the white film (level 4).

PC12 cells [3] = assay: Anti-oxidant activity against oxidative stress by H2O2 at the cellular level; type: cell-based; conditions: 10-100 μM; H2O2 killed over 80% of the PC12 cells
Text: Glycation includes oxidative processes and is closely related to oxidative stress. […] The oxidative stress by H2O2 induces apoptosis in vitro and in vivo, and effective anti-oxidants such as N-acetyl-cysteine reduces the oxidative stress and protects the cells from the apoptosis.

[4] = Storage stability of the eye drop (HPLC profiles); type: physicochemical; conditions: eye drop pH 5.5, one month of storage at 4° C.
Procedure: as §1

[5] = system: human corneal epithelial cells (HCEC cells); conditions: human cornea epithelial cells, under the microscope
Procedure: HCEC cells were grown in EpiLife medium supplemented with human corneal growth supplements (HCGS; Cascade Biologics). The cells were maintained at 37° C. in a humidified atmosphere containing 5% CO2 and the medium was changed every other day. HCEC cells were seeded onto 96-well plates at a density of approximately 10^3 cells/well and cultivated for one day. […] The medium was aspirated and the treatments were applied to the cells (in triplicates) for different incubation times (5 minutes to 2 hours and 24 hours). At the end of the incubation times, the survival of the cells was visually examined under microscope.

[6] = target: T1, bovine serum albumin (BSA) with D-ribose (Bos taurus, UniProt P02769); assay: Maillard fluorescence-based anti-glycation assay; conditions: in vitro anti-glycation; for IC50: BSA 0.075 mM, D-ribose 50 mM, 37° C., 5 days; for Imax: maximum inhibition of Maillard fluorescence
Procedure: (§3) The Maillard fluorescence-based assay was used to screen anti-glycation activity of approximately 1,300 drugs or drug candidates. […] Briefly the assay involved incubation of bovine serum albumin (BSA) (0.075 mM) with D-ribose (50 mM) and an assay compound (0.47, 4.7 and 47 μg/mL). Solutions were incubated at 37° C. for 5 days.

dog = conditions: intravenous injection, compared with (R,S)-isoproterenol; cited from earlier work
human eye = conditions: cited from earlier work
[7] = Body weight of non-diabetic and diabetic rats; type: in vivo, rat
Procedure: as §2

human eyes = conditions: cited from earlier work
[8] = large intravenous dose; cited from earlier work
[9] = pKa of the aromatic dihydroxyl group; type: physicochemical
[10] = target: T1, bovine serum albumin (BSA) with D-ribose; assay: biochemical
Procedure: as §3

[11] = better than epinephrine; cited from earlier work
[12] = 2.47% instilled to normal human eyes (Bonomi 1964)

T1 sequence (P02769 25-607): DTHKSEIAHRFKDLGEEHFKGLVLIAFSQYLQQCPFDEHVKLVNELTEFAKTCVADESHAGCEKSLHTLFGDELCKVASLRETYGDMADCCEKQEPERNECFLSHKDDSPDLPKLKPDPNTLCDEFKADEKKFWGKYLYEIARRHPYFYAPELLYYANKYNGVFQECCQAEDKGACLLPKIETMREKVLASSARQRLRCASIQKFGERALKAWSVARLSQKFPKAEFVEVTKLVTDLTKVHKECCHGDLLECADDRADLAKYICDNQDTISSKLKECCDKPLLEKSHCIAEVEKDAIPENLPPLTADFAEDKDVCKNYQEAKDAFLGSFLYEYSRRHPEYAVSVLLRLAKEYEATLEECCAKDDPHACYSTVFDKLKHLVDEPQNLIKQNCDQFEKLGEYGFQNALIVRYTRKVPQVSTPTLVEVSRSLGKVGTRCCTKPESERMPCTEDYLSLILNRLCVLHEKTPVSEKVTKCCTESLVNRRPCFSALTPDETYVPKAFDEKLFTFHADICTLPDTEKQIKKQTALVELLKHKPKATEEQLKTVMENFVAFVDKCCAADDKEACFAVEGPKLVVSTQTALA

With `CC(C)NC[C@@H](O)c1ccc(OC(=O)C(C)(C)C)c(OC(=O)C(C)(C)C)c1.Cl` [(S)-isoproterenol dipivalate, (S)-isoproterenol dipivalate hydrochloride] the “tolerance of PC12 cells” value (PC12 cells [1]; longer incubation up to 24 h, minimum media (data not shown)) was 500 µM, the “concentration PC12 cells were tolerant to” value (PC12 cells [1]; short incubation up to 2 hr) was “up to 500 μM” and the “Time entered in level 4” value ([2]; Left eye) was 14.5 week and 19.5 week and 19 week (2×) and 16 week and 18.5 week and 20.5 week (2×) and 8 week and 22 week. The “Time stayed in level 0” value ([2]; Left eye) was 8 week (6×) and 9 week (3×) and 14 week and 18 week and >30 week (4×) and >23 week and 12 week, the “Time stayed in level 1” value ([2]; Left eye) was 1 week (4×) and 2.5 week and 2 week (3×) and 0.5 week (2×) and 3 week (2×) and the “Time stayed in level 2” value ([2]; Left eye) was 2 week (5×) and 1 week and 1.5 week (2×) and 0.5 week (2×) and 2.5 week and 5 week. For the same molecule, the “Time stayed in level 3” value ([2]; Left eye) was 2.5 week and 7.5 week and 5.5 week and 3 week and 3.5 week and 7 week and 8 week and 4 week and 5 week and 6.5 week, the “Time entered in level 4” value ([2]; Right eye) was 14.5 week and 19.5 week and 19 week (3×) and 15.5 week and 20.5 week (2×) and 8 week and 22 week and the “Time stayed in level 0” value ([2]; Right eye) was 8 week (7×) and 13 week and 18.5 week (2×) and 17 week and >30 week (2×) and 18 week and 14 week and 11.5 week and 12 week. For the same molecule, the “Time stayed in level 1” value ([2]; Right eye) was 1 week (7×) and 0.5 week (5×) and 2.5 week and 2 week and 0 week, the “Time stayed in level 2” value ([2]; Right eye) was 2 week (7×) and 0.5 week (2×) and 1.5 week and 1 week (2×) and 5 week and 2.5 week (2×) and the “Time stayed in level 3” value ([2]; Right eye) was 2.5 week and 7.5 week and 7 week (2×) and 4 week (2×) and 3 week and 8 week and 6.5 week (2×). For the same molecule, the “Time stayed in level 0 (cataract initiation), Av ± STD” value [2] was 15.0±8.3 week, the “Time stayed in level 0 (cataract initiation), Av ± STD” value ([2]; listed as drug) was over 15.0 ± 8.3 week and the “Time stayed in level 1, Av ± STD” value [2] was 1.24 ± 0.82 week. The “Time stayed in level 2, Av ± STD” value [2] was 1.88 ± 1.09 week, the “Time stayed in level 3, Av ± STD” value [2] was 5.4 ± 1.9 week and the “Time stayed in level 1, Av ± STD” value ([2]; listed as prodrug) was 1.24±0.82 week. The “Time stayed in level 2, Av ± STD” value ([2]; listed as prodrug) was 1.88±1.09 week, the “Time stayed in level 3, Av ± STD” value ([2]; listed as prodrug) was 5.4±1.9 week and the “percentage of eyes initiating cataract” value ([2]; eyes initiating at 8.6±1.2 weeks) was 53%. The “percentage of eyes initiating cataract” value ([2]; eyes initiating at 17.1±3.1 weeks) was 26%, the “percentage of eyes initiating cataract” value ([2]; eyes initiating at >30 weeks (except one eye >23 weeks)) was 21% and the “time of cataract initiation” value ([2]; first subgroup, 53% of the eyes) was 8.6±1.2 weeks. For the same molecule, the “time of cataract initiation” value ([2]; second subgroup, 26% of the eyes) was 17.1±3.1 weeks, the “time of cataract initiation” value ([2]; third subgroup, 21% of the eyes) was over 30 weeks and the “protective effect against H2O2 oxidative stress” value (PC12 cells [3]) was “did not show any protective effect”. For the same molecule, the degradation on storage [4] was “No degradation”, the “concentration with no visibly noticed cytotoxicity” value [5] was “up to 25 mM” and the blood glucose level (Group II, non-diabetic rats receiving prodrug, 27 week period) was 5.1 ± 0.4 mM. For the same molecule, the blood glucose level (Group IV, diabetic rats receiving prodrug, stabilized level) was 27 ± 5 mM.

In the case of `NC[C@@H](O)c1ccc(O)c(O)c1` [(S)-Norepinephrine], the IC50 [6] is reported as 40.3 ± 4.7 µM and the Imax [6] is reported as 93%.

Molecule (R)-Epinephrine has an IC50 [6] of 15.5 ± 1.7 µM and an Imax [6] of 83%.

In the case of `CC(C)NCC(O)c1ccc(OC(=O)C(C)(C)C)c(OC(=O)C(C)(C)C)c1` (racemic), the cardiovascular effect (dog) is given as “did not produce any unique cardiovascular effect”.

In the case of `CC(C)NCC(O)c1ccc(O)c(O)c1` (racemic) [(R,S)-isoproterenol], the “duration of reduction in ocular tension” value (human eye; [12]) is listed as “at least 12 h” and the “reduction in ocular tension” value (human eye; [12]) is listed as 20%.

With `CC(C)NC[C@@H](O)c1ccc(O)c(O)c1.O=C(O)C(O)C(O)C(=O)O` [(S)-Isoproterenol, (S)-isoproterenol bitartrate] the “effect on weight gain/loss” value ([7]; diabetic rats, Group IV vs Group III) was “no effect”, the “effect on weight gain/loss” value ([7]; non-diabetic rats, Group II vs Group I) was “no effect” and the “protective effect against H2O2 oxidative stress” value (PC12 cells [3]) was “did not show any protective effect”. The “effect on blood glucose level and diabetes” value (Groups I vs II and III vs IV) was “does not affect the blood glucose level”, the ocular adverse effects (human eyes; eye drop, 10%, human eyes) was “only brief mild conjunctival hyperemia and irritation” and the “effects on blood pressure and pulse rate” value [8] was “only slight and transient effects on blood pressure and pulse rate”. For the same molecule, the IC50 [6] was 16.8 ± 0.8 µM and the Imax [6] was 81%.

`CNCC(O)c1ccc(O)c(O)c1` (racemic) [(R,S)-Epinephrine] showed an IC50 [6] of 17 ± 1.1 µM and an Imax [6] of 82%.

`CC(C)NCC(O)c1ccc(O)c(O)c1` (centres unmarked) [isoproterenol] showed a pKa [9] of 8.72 ± 0.05.

`NC[C@H](O)c1ccc(O)c(O)c1` [(R)-Norepinephrine] gave an IC50 [6] of 39.6 ± 3.4 µM and an Imax [6] of 92%.

For `CC(C)NC[C@@H](O)c1ccc(O)c(O)c1.Cl` [(S)-isoproterenol HCl, (S)-isoproterenol hydrochloride], the ocular adverse effects (human eyes; topical administration of 20%, persisted for several hours) is listed as “marked conjunctival hyperemia and mild miosis” and the “effect on intra-ocular pressure” value (human eye; topical administration of up to 20%, human eye) is listed as “did not show any indication to lower intra-ocular pressure”.

Molecule `CC(C)NC[C@H](O)c1ccc(O)c(O)c1` [(R)-Isoproterenol] has an IC50 [10] of 18.1 ± 1.1 µM and an Imax [6] of 86%.

For `CNCC(O)c1ccc(OC(=O)C(C)(C)C)c(OC(=O)C(C)(C)C)c1` (racemic) [Dipivefrin, (R,S)-epinephrine dipivalate], the “enhancement of ocular absorption” value [11] is given as 17 time.
